Patent publication US8210776B2, “Calcification method using calcifying bacteria” (Soletanche Freyssinet, priority 2007, dated 2012)

Assays:
[1] = test system: Sporosarcina pasteurii—CIP 66.21 Pasteur; test: Degree of attachment in sand columns, chicory and/or divalent ion salt added before injection (Example 4); type: cell-based; conditions: 10 mM Ca(NO3)2 added to the culture medium; 20° C.
Experimental: The columns were prepared in accordance with Example 3.
The bacteria (Sporosarcina pasteurii—CIP 66.21 Pasteur) were cultured in a culture medium (1 L of laboratory water) containing 10 g of yeast extract, 3 g of NaCl, 2.4 g of urea, 0.1 g of MgCl2 and 0.0128 g of NiCl2. When the bacteria are at the end of the exponential phase, the following are added to the culture medium: • either a source of calcium (10 mM Ca(NO3)2); • or chicory in a proportion of 4 or 8 g/L; • or a source of calcium (10 mM Ca(NO3)2) and chicory in a proportion of 4 or 8 g/L.
The whole was left to stir for one hour before being injected into the columns.
The injection conditions are identical to those of Example 3. All the experiments were carried out at 20° C.
The cumulative column inlet and outlet OD values are compared and expressed in the form of percentage loss of OD, which represents the degree of attachment of the bacteria in the column. FIG. 5 represents the degrees of attachment of the bacteria stimulated by the addition of chicory, of calcium salt or of both to the culture medium before injection.
The protocol is identical to that of Example 4.1, with the calcium ions (Ca(NO3)2) being replaced with magnesium ions (Mg(NO3)2).

[2] = test system: S. pasteurii (CIP 66.21 Pasteur); test: Screening for sugars that can be assimilated, API strips (API 20 E and API 50CH); type: cell-based, Sporosarcina pasteurii; conditions: API strip analysis
Text: The first step was to carry out a screening of the various sugars that exist, in order to identify that or those which is (are) assimilable and which stimulate EPS synthesis in Sporosarcina pasteurii, preferably without inhibiting urease synthesis.
For this, two types of API strips were used: API 20 E and API 50CH. These tests are in the form of microtubes containing dehydrated substrates and which are inoculated with a bacterial suspension.

Sporosarcina pasteurii = test: Culture with inulin/chicory replacing part of the yeast extract: attachment to glassware, growth, enzymatic activity; type: cell-based
Text: In order to determine the amount of inulin necessary in order to act on the synthesis of urease and on the production of EPS in Sporosarcina pasteurii, a part of the nitrogenous carbon source (yeast extract) was replaced with chicory.

[3] = test system: Sporosarcina pasteurri—CIP 66.21 Pasteur; test: Degree of attachment of bacteria to Fontainebleau sand columns, chicory in the culture medium (Example 3); type: cell-based, Sporosarcina pasteurii; conditions: media with versus without chicory
Experimental: The chicory used is powdered extract of freeze-dried chicory, derived from the root of Cichorium intibus and sold under the trade name “Chicorée soluble Leroux”. For this, two tests were carried out in parallel on columns:
The columns were made up of a PVC tube 63 mm in diameter and 200 mm in height, positioned between two PVC bases. One centimeter of filter sand was placed at the two ends and the whole of the column was made up with Fontainebleau sand tamped down under water by tapping. The Fontainebleau sand is the NE34-grade sand from SIFRACO. The injections were carried out from top to bottom. […]
Monitoring of the OD at the column outlet makes it possible to know the degree of attachment of the bacteria to the Fontainebleau sand. A calibration OD measurement was carried out beforehand on each of the media from which the bacteria were extracted in order to be free of differences in reading related to the medium itself. […]
Since the column porosity volume is 250 mL, the detection of the first bacteria at the column outlet is carried out after having injected 250 mL of culture medium. The graphic representation of the cumulative OD at the column inlet and at the column outlet makes it possible to readily visualize the degree of attachment of the bacteria to the granular substrate. […] The outlet ODs are also measured every minute. […]

Compound | Degree of attachment (%) [1] [%] | carbon source that can be assimilated by Sporosarcina pasteurii [2] | adhesion of the bacteria to the laboratory glassware through the production of EPS (Sporosarcina pasteurii) | growth of the bacteria (Sporosarcina pasteurii) | bacterial growth (inlet OD) [3]
O=[N+]([O-])[O-].O=[N+]([O-])[O-].[Ca+2] [Ca(NO3)2] | 49.5 | – | – | – | –
Inulin | – | can be assimilated | demonstrated adhesion | more rapid | greater
